Measured values from patent US12042499B2, “Administration of aurora kinase inhibitor and chemotherapeutic agents” (Millennium Pharmaceuticals, Inc., priority 2015, dated 2024).

How the values were obtained:
Assay type in all cases: in vivo, female Athymic NCr nu/nu mice
[1] = tested on: NCI-H82 small cell lung tumor; assay: NCI-H82 xenograft model study 1: alisertib and carboplatin
Experimental: NCI-H82 1: […] Those animals selected with tumors in the proper volume range were randomized into 9 treatment and control groups (n=10/group) so that the median tumor volumes on the first day of treatment were as close as possible (206-219 mm^3). […] The suspension was diluted to 4 mg/mL with 2% sodium bicarbonate (NaHCO3) in WFI. The final composition of the alisertib vehicle was 10% HPBCD/1% NaHCO3 in WFI. The 4 mg/mL solution was diluted to 2 mg/mL with complete vehicle for the lower dose. The alisertib dosing formulations were stored in brown bottles at room temperature during the dosing period. […] A 10 mg/mL stock solution of carboplatin (Hospira, Inc.) was diluted each day of treatment with saline. […] Tumors were measured twice weekly using vernier calipers. […] Tumor size and body weight were measured approximately twice a week for the duration of the study. […] Tumor growth continued to be monitored after the dosing period in some studies. […] For each animal, the log tumor volume at the day of treatment initiation is subtracted from the log tumor volume on the subsequent days. This difference vs. time is used to calculate an area under the curve (AUC) for each animal using the trapezoid rule. In instances when an animal in a treatment group is removed early from the study, the last observed tumor value is carried forward through all subsequent time points. The synergy score for the combination of agents A and B is defined as 100*(mean(AUCAB)-mean(AUCA)-mean(AUCB)+mean(AUCctl))/mean(AUCctl): where AUCAB, AUCA, AUCB, and AUCctl are the AUC values for animals in the combination group, the A group, the B group, and the control group, respectively. The standard error of the synergy score is computed based on the variation in the AUC values among the animals. […] If the P-value is above 0.05, then the combination is considered to be additive. If the P-value is below 0.05, and the synergy score is less than zero, then the combination is considered to be synergistic. If the P-value is below 0.05 and the synergy score was greater than zero, but the mean AUC for the combination was […] than the lowest mean AUC among the two single agent treatments, then the combination was sub-additive. If the P-value is below 0.05 and if the synergy score was greater than zero, and the mean AUC for the combination was greater than the mean AUC for at least one of the single agent treatments, then the combination was antagonistic. […] In the combination treatment groups alisertib was administered first, followed immediately by the administration of carboplatin. One group served as a vehicle-treated control group (Group 1) receiving PO treatment with the vehicle used for administration of alisertib in treatment groups on a QDx21 schedule.

[2] = tested on: NCI-H69 small cell lung tumor; assay: NCI-H69 xenograft model: alisertib and cisplatin
Excerpt: NCI-H69: A thirty-to-forty mg fragment of NCI-H69 small cell lung tumor, propagated in an in vivo passage, was implanted SC in the area of the right flank of female Athymic NCr nu/nu nice (age 6 weeks, Charles River Laboratories, Frederick, MD) using a 12-gauge trocar needle. Tumors were allowed to reach 100-245 mm^3 in volume before the start of treatment. A sufficient number of mice were implanted so that tumors in a volume range as narrow as possible were selected for the trial on the day of treatment initiation (day 24 after tumor implantation, designated as SD, or Day 0). Those animals selected with tumors in the proper volume range were randomized into 9 treatment and control groups (n=10/group) so that the mean tumor volumes on the first day of treatment were as close as possible (169-174 mm^3).
(§1) An 8 mg/mL suspension of alisertib was formulated weekly by adding a half volume of 20% HPBCD in water for injection (WFI) to the alisertib powder, then mixing by vortexing, and sonicating for one minute. The suspension was diluted to 4 mg/mL with 2% sodium bicarbonate (NaHCO3) in WFI. The final composition of the alisertib vehicle was 10% HPBCD/1% NaHCO3 in WFI. The 4 mg/mL solution was diluted to 2 mg/mL with complete vehicle for the lower dose. The alisertib dosing formulations were stored in brown bottles at room temperature during the dosing period. All alisertib injections were administered on the basis of exact animal body weight on each day of treatment, using an injection volume of 0.05 mL/10 g body weight.
(§2) A 1 mg/mL stock solution of cisplatin (Cisplatin Injection, PCH […]) was diluted each day of treatment with saline to 0.8 and 0.4 mg/mL. Cisplatin injections were administered on the basis of exact animal body weight on each day of treatment, using an injection volume of 0.05 mL/10 g body weight.
(§3) Tumors were measured twice weekly using vernier calipers. Tumor volumes were calculated using standard procedures V=W^2×L/2). When mean tumor volumes reached approximately 206-219 mm^3 for NCI-H82 1, 196-198 mm^3 for NCI-H82 2, or 169-174 mm^3 for NCI-H69, mice were randomized into groups of n=10/arm as described in the tables below, and injected with vehicle, alisertib or agents (cisplatin, or carboplatin), or the combination of alisertib plus one of the agents, at various doses and schedules as described below in Tables 1a, 2a and 3a. Tumor size and body weight were measured approximately twice a week for the duration of the study. […] Tumor growth continued to be monitored after the dosing period in some studies. […]
(§4) Measurements from the day of treatment initiation to Day 20 or Day 21 following treatment initiation are analyzed as specified in Tables below. […]

[3] = tested on: NCI-H82 small cell lung tumor; assay: NCI-H82 xenograft model study 2: alisertib and cisplatin
Excerpt: NCI-H82 2: A thirty-to-forty mg fragment of NCI-H82 small cell lung tumor, propagated in an in vivo passage, was implanted SC in the area of the right flank of female Athymic NCr nu/nu mice (age 5 weeks, Charles River Laboratories, Wilmington, MA) using a 12-gauge trocar needle. Tumors were allowed to reach 100-245 mm^3 in volume before the start of treatment. A sufficient number of mice were implanted so that tumors in a volume range as narrow as possible were selected for the trial on the day of treatment initiation (day 14 after tumor implantation, designated as SD, or Day 0). Those animals selected with tumors in the proper volume range were randomized into 9 treatment and control groups (n=10/group) so that the median tumor volumes on the first day of treatment were as close as possible (196-198 mm^3).
as §1, §2, §3, §4

## COc1cc(Nc2ncc3c(n2)-c2ccc(Cl)cc2C(c2c(F)cccc2OC)=NC3)ccc1C(=O)O [Alisertib, 4-{[9-chloro-7-(2-fluoro-6-methoxyphenyl)-5H-pyrimido[5,4-d][2]benzazepin-2-yl]amino}-2-methoxybenzoic acid]
[1]; 10 mg/kg Alisertib QDx21 PO
  Tumor Volume Day 21: 1701 mm^3
[1]; 20 mg/kg Alisertib QDx21 PO
  Tumor Volume Day 21: 1640 mm^3
[2]; 10 mg/kg Alisertib QDx21 PO
  Tumor Volume Day 20: 374 mm^3
[2]; 20 mg/kg Alisertib QDx21 PO
  Tumor Volume Day 20: 149 mm^3
[3]; 10 mg/kg Alisertib QDx21 PO
  Tumor Volume Day 20: 1578 mm^3
[3]; 20 mg/kg Alisertib QDx21 PO
  Tumor Volume Day 20: 1461 mm^3

## N.N.O=C([O-])C1(C(=O)[O-])CCC1.[Pt+2] [Carboplatin, carboplatin]
[1]; 25 mg/kg Carboplatin Q7Dx3 IP
  Tumor Volume Day 21: 1373 mm^3
[1]; 75 mg/kg Carboplatin Q7Dx3 IP
  Tumor Volume Day 21: 965 mm^3

## N.N.[Cl][Pt][Cl] [Cisplatin, cisplatin]
[2]; 2 mg/kg Cisplatin Q4Dx3 IP
  Tumor Volume Day 20: 604 mm^3
[2]; 4 mg/kg Cisplatin Q4Dx3 IP
  Tumor Volume Day 20: 300 mm^3
[3]; 2 mg/kg Cisplatin Q4Dx3 IP
  Tumor Volume Day 20: 1429 mm^3
[3]; 4 mg/kg Cisplatin Q4Dx3 IP
  Tumor Volume Day 20: 1270 mm^3
